These results are taken from patent US6020328A, “20-keto-11β-arylsteroids and their derivatives having agonist or antagonist hormonal properties” (Research Triangle Institute, priority 1998, dated 2000).

Assay [1] relates to rabbits. The assay is described as follows: McGinty test (agonist, test compound alone). Type of assay: in vivo, rabbit.
Protocol: (§2) Progestational activity and antiprogestational activity were determined in rabbits by means of the McGinty test (test compound alone, procedure of McGinty et al., Endocrinology, 24:829-832 (1939)) or anti-McGinty test (test compound plus progesterone, procedure of Tamara et al., Jpn. J. Fertil. Steril. 24:48-81 (1979)). Results were scored according to McPhail (McPhail, J. Physiol., 83:146 (1934)).
For assay [2], the target named is T1, androgen receptor (Rattus norvegicus, UniProt P15207).
T1 construct: using the cytosolic receptor from rat central prostate; from tissue
T1 sequence (P15207 1-902): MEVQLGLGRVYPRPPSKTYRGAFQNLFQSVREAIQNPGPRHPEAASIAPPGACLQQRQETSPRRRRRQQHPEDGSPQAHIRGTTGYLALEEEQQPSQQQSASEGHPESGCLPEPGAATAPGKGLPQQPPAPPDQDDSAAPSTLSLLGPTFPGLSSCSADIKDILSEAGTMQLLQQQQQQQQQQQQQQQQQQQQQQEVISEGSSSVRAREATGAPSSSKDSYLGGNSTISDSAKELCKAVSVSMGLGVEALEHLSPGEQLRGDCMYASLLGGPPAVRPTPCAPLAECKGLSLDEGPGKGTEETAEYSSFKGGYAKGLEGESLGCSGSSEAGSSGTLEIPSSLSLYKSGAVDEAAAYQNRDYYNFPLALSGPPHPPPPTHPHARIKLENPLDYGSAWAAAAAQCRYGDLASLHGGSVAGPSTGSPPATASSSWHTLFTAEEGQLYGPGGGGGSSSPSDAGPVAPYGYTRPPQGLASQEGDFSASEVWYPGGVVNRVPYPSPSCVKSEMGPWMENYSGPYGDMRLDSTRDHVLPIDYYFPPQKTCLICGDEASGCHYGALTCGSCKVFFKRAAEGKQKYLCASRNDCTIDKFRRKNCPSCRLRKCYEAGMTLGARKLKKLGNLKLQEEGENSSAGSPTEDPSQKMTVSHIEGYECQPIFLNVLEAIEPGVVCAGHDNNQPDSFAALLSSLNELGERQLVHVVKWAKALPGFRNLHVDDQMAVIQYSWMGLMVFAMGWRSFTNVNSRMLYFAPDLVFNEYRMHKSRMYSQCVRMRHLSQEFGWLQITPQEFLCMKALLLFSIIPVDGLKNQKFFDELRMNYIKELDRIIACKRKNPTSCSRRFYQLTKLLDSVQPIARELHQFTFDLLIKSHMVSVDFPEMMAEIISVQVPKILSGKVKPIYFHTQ
In words: androgen receptor binding.

In assay [3] the test system is rabbits. In words: anti-McGinty test (antagonist, test compound plus progesterone). The class given is in vivo, rabbit. Particulars: in words.
Protocol: as §2
Assay [4] deals with progestin receptor (hPR). In words: progestin receptor binding. Particulars: cytosol from human T-47D breast cells; [3H]-R5020; read-out: Receptor Binding Affinity hPR IC50.
Description: However, the receptors were of human origin and a different radioligand was used. Thus, for progestin receptor binding the receptor was obtained in cytosol from human T-47D breast cells and [^3 H]-R5020 was used as the radioligand. Data are expressed as IC50 values, i.e., the concentration of compound that inhibits the radioligand binding by 50%.
Assay [5] has as its system Human T-47D breast cells. The assay is described as follows: T-47D cell proliferation, antagonist format (inhibition of 0.15 nM R5020-mediated proliferation). Type of assay: cell-based. Particulars: T47D. The procedure:
(§1) Human T-47D breast cells grown in nutrient media were incubated with the standard progestin R5020 alone or with R5020 plus test compound and then assessed by standard procedures for proliferation using incorporation of [^3 H]-thymidine as the measurement. […] The maximum % inhibition (a measure of the efficacy of the compounds) is also given. In the agonist format of this assay the compounds were tested at concentrations ranging from 0.01 to 10 nM and the maximum % stimulation at any dose is listed in Table 2. […] However, the presence of a very polar hydroxyl group in the 17α-position greatly diminishes antiprogestational activity and this holds even when the OH is separated from the 17-carbon atom by a methylene group.

For assay [6], the system named is Ishikawa human endometrial adenocarcinoma cell line. In words: anti-estrogenic activity in Ishikawa cells (block of estrogen-stimulated alkaline phosphates activity). Type of assay: cell-based. The settings on record: in words, concentration not given.
The test system of assay [7] is Human T-47D breast cells. The assay is described as follows: T-47D cell proliferation, agonist format. Particulars: T47D, 0.01 to 10 nM, maximum at any dose, read-out: Cell Proliferation Agonist maximum % Stim. Type of assay: cell-based. The procedure:
as §1

In assay [8] the test system is immature female rabbits. The assay is described as follows: anti-estrogenic activity in vivo (uterine weight). On the set-up: species or system rabbit. The settings on record: test compound 10 mg/day oral + 5 μg estradiol per day. Here is the method: Steril. 52: 1055-1060 (1989). […] The weight of uteri from untreated immature rabbits was increased from 246±87 (S.E.) mg with no estradiol to 1402±104 mg with estradiol alone. Concurrent treatment of rabbits with estradiol and 10 mg/day of 17α-acetoxy-11β-(4-(N-piperidino)phenyl)-19-norpregna-4,9-diene-3,20-dione reduced the uterine weights to 998±98 mg. Likewise 17α-acetoxy-11β-(4-N-pyrrolidino)phenyl)-19-norpregna-4,9-diene-3,20-dione at 10 mg/day reduced the uterine weight to 919±115 mg, and 17α-acetoxy-11β-(1-methyl-5-indolyl)-19-norpregna-4,9-diene-3,20-dione reduced uterine weight to 956±115 mg at the same dose.

The test system of assay [9] is immature male rats. The assay is described as follows: antiglucocorticoid activity in vivo (thymus weight). On the set-up: species or system rat. The procedure: The ability of the compounds to block the effects of dexamethasone (6 μg per day for 7 days) on thymus weight of immature male rats was assessed.
Assay [10] has as its system rabbits. The settings on record: in words; Cook et al., Human Reproduction 1994; cited from earlier work.

pEC50, pIC50: −log10 of the molar value.

`CN(C)c1ccc([C@H]2C[C@@]3(C)[C@@H](CC[C@@]34OC(=O)CCC4=O)[C@@H]3CCC4=CC(=O)CCC4=C32)cc1` [II 4-Me2 N H O H -- H H H, 11β-[4-(N,N-dimethylamino)phenyl]-3,20-dioxo-17α-hydroxy-19,21-dinorchola-4,9-dien-24-oic acid δ-lactone]: the “McPhail Index, McGinty Assay (Agonist)” value in assay [1] (dose 0.3 micrograms) was 0 +/- 0; in [1] (dose 3 micrograms) it was 0 +/- 0; in assay [1] (dose 30 micrograms) it was 0. The “progestational activity, McGinty test” value in [1] (in words) is recorded as “no evidence of progestational activity”. The negative logarithm of the IC50 (pIC50) in assay [2] (cytosolic receptor from rat central prostate, [3H]-5α-dihydrotestosterone) is 7.05; in assay [4] it was 7.92. Besides, the androgen receptor affinity entry in assay [2] (in words) was “very low affinity”. Moreover, the “antiprogestational activity, anti-McGinty test” value in assay [3] is listed as “potent antiprogestational activity”.
In the case of `CC(=O)O[C@]1(C(C)=O)CC[C@H]2[C@@H]3CCC4=CC(=O)CCC4=C3[C@@H](c3ccc4c(ccn4C)c3)C[C@@]21C` [I 1-methylindol-5-yl O H --O--CO--CH3 H, 17α-Acetoxy-11β-(1-methylindol-5-yl)-19-norpregna-4,9-diene-3,20-dione], the negative logarithm of the EC50 (pEC50) in assay [5] (inhibition of 0.15 nM R5020-mediated proliferation, N.D. not detected) is 9.15. Further, the Emax in assay [5] (maximum % inhibition, 0.15 nM R5020, read-out: Cell Proliferation Antagonist maximum % Inhib.) was 110%; in assay [7], 17%. In addition, the “McPhail Index, McGinty Assay (Agonist)” value in [1] (dose 0.3 micrograms), in [1] (dose 3 micrograms) and in assay [1] (dose 30 micrograms) was 0 +/- 0 each time. In assay [6], the “anti-estrogenic activity in the Ishikawa cell assay” value was “inactive”. The negative logarithm of the IC50 (pIC50) in assay [4] is 8.62. Also, in assay [8], the uterine weight amounted to 956 ± 115 mg. In addition, the thymus weight in assay [9] (6 μg dexamethasone + 1,000 μg test compound per day, 7 days) was determined as 105 ± 8 mg; in assay [9] (test compound given alone) it was 270 ± 13 mg. Also, the antiglucocorticoid activity result in [9] (1000 μg per day, in words) is on record as “little or no antiglucocorticoid activity in vivo”. Further, the glucocorticoid activity entry in assay [9] (compound given alone, in words) is “Neither did it show significantglucocorticoid activity”.
Turning to `CC(=O)O[C@]1(C(C)=O)CC[C@H]2[C@@H]3CCC4=CC(=O)CCC4=C3[C@@H](c3ccc(N(C)C)cc3)C[C@@]21C` [17α-acetoxy-11β-(4-(N,N-dimethylamino)phenyl)-19-norpregna-4,9-diene-3,20-dione], the antiprogestational activity entry in assay [10] is reported as “potent antiprogestational activity”.
